Columns and labels:
Assay in all cases: Test C greenhouse herbicide test, pre- and postemergence
Format in all cases: in vivo
[1] = system: ragweed (common ragweed, Ambrosia elatior)
Summary of the method: (§1)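 Preemergence: seeds sown in a loam soil–sand blend and sprayed with test chemicals in a non-phytotoxic solvent mixture containing surfactant. Postemergence: plants grown in peat-based medium and treated at 2 to 18 cm (1- to 4-leaf stage). After 13 to 15 d in a greenhouse, injury was visually rated 0–100 against controls.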

[2] = system: velvetleaf (Abutilon theophrasti)
Summary of the method: as §1

[3] = system: morningglory (Ipomoea coccinea)
Summary of the method: as §1

[4] = system: barnyardgrass (Echinochloa crus-galli)
Summary of the method: as §1

[5] = system: waterhemp (common waterhemp, Amaranthus rudis)
Summary of the method: as §1

[6] = system: corn (Zea mays)
Summary of the method: as §1

[7] = system: johnsongrass (Sorghum halepense)
Summary of the method: as §1

[8] = system: blackgrass (Alopecurus myosuroides)
Summary of the method: as §1

[9] = system: galium (catchweed bedstraw, Galium aparine)
Summary of the method: as §1

[10] = system: lambsquarters (Chenopodium album)
Summary of the method: as §1

[11] = system: pigweed (Amaranthus retroflexus)
Summary of the method: as §1

[12] = system: ryegrass, Italian (Italian ryegrass, Lolium multiflorum)
Summary of the method: as §1

[13] = system: soybean (Glycine max)
Summary of the method: as §1

[14] = system: wheat (winter wheat, Triticum aestivum)
Summary of the method: as §1

[15] = system: nutsedge, yellow (yellow nutsedge, Cyperus esculentus)
Summary of the method: as §1

[16] = system: foxtail, giant (giant foxtail, Setaria faberii)
Summary of the method: as §1

[17] = Postemergence, 31 g ai/ha, scale 0 to 100 (0 no effect, 100 complete control)
[18] = Postemergence, 62 g ai/ha, 0 to 100 scale (0 no effect, 100 complete control)
[19] = Postemergence, 250 g ai/ha, scale 0 to 100, 0 no effect, 100 complete control, 13 to 15 d
[20] = Preemergence, 31 g ai/ha, scale 0 to 100, 0 is no effect, 100 is complete control
[21] = Preemergence, 62 g ai/ha, scale 0 to 100, 0 is no effect, 100 is complete control
[22] = Preemergence, 125 g ai/ha, scale 0 to 100, 0 is no effect, 100 is complete control
[23] = Preemergence, 250 g ai/ha, scale 0 to 100 (0 no effect, 100 complete control)
[24] = postemergence, 125 g ai/ha, scale 0 to 100, 0 no effect, 100 complete control

SMILES: Cc1cc(C)c2ccccc2c1-c1c(OS(C)(=O)=O)c(C)nn(C)c1=O [Compound 154]
- Plant response rating, Ragweed [1, 17]: 70
- Ragweed plant response rating [1, 18]: 75
- Plant response rating, Ragweed [1, 19]: 90
- Plant response rating, Ragweed [1, 20]: 80
- Plant response rating, Ragweed [1, 21]: 95
- Plant response rating, Ragweed [1, 22]: 90
- Ragweed plant response rating [1, 23]: 95
- Ragweed plant response rating [1, 24]: 85
- Plant response rating, Velvetleaf [2, 17]: 70
- Velvetleaf plant response rating [2, 18]: 85
- Plant response rating, Velvetleaf [2, 19]: 90
- Plant response rating, Velvetleaf [2, 20]: 40
- Plant response rating, Velvetleaf [2, 21]: 60
- Plant response rating, Velvetleaf [2, 22]: 85
- Velvetleaf plant response rating [2, 23]: 85
- Velvetleaf plant response rating [2, 24]: 85
- Plant response rating, Morningglory [3, 17]: 95
- Morningglory plant response rating [3, 18]: 98
- Plant response rating, Morningglory [3, 19]: 100
- Plant response rating, Morningglory [3, 20]: 45
- Plant response rating, Morningglory [3, 21]: 85
- Plant response rating, Morningglory [3, 22]: 85
- Morningglory plant response rating [3, 23]: 90
- Morningglory plant response rating [3, 24]: 98
- Plant response rating, Barnyardgrass [4, 17]: 70
- Barnyardgrass plant response rating [4, 18]: 85
- Plant response rating, Barnyardgrass ([4]; Postemergence, 125 g ai/ha, scale 0 to 100, 0 is no effect, 100 is complete control): 90
- Plant response rating, Barnyardgrass [4, 19]: 95
- Plant response rating, Barnyardgrass [4, 20]: 65
- Plant response rating, Barnyardgrass [4, 21]: 80
- Plant response rating, Barnyardgrass [4, 22]: 90
- Barnyardgrass plant response rating [4, 23]: 95
- Plant response rating, Waterhemp [5, 17]: 75
- Waterhemp plant response rating [5, 18]: 80
- Plant response rating, Waterhemp [5, 19]: 70
- Plant response rating, Waterhemp [5, 20]: 30
- Plant response rating, Waterhemp [5, 21]: 85
- Plant response rating, Waterhemp [5, 22]: 95
- Waterhemp plant response rating [5, 23]: 100
- Waterhemp plant response rating [5, 24]: 85
- Plant response rating, Corn [6, 17]: 15
- Corn plant response rating [6, 18]: 5
- Plant response rating, Corn [6, 19]: 5
- Plant response rating, Corn [6, 20]: 5
- Plant response rating, Corn [6, 21]: 5
- Plant response rating, Corn [6, 22]: 5
- Corn plant response rating [6, 23]: 5
- Corn plant response rating [6, 24]: 5
- Plant response rating, Johnsongrass [7, 17]: 5
- Johnsongrass plant response rating [7, 18]: 5
- Plant response rating, Johnsongrass [7, 19]: 20
- Plant response rating, Johnsongrass [7, 20]: 10
- Plant response rating, Johnsongrass [7, 21]: 45
- Plant response rating, Johnsongrass [7, 22]: 50
- Johnsongrass plant response rating [7, 23]: 75
- Johnsongrass plant response rating [7, 24]: 20
- Plant response rating, Blackgrass [8, 17]: 60
- Blackgrass plant response rating [8, 18]: 65
- Plant response rating, Blackgrass [8, 19]: 85
- Plant response rating, Blackgrass [8, 20]: 5
- Plant response rating, Blackgrass [8, 21]: 50
- Plant response rating, Blackgrass [8, 22]: 85
- Blackgrass plant response rating [8, 23]: 90
- Blackgrass plant response rating [8, 24]: 60
- Plant response rating, Galium [9, 17]: 95
- Galium plant response rating [9, 18]: 95
- Plant response rating, Galium [9, 19]: 95
- Plant response rating, Galium [9, 20]: 98
- Plant response rating, Galium [9, 21]: 95
- Plant response rating, Galium [9, 22]: 98
- Galium plant response rating [9, 23]: 100
- Galium plant response rating [9, 24]: 95
- Plant response rating, Lambsquarters [10, 17]: 90
- Lambsquarters plant response rating [10, 18]: 85
- Plant response rating, Lambsquarters [10, 19]: 95
- Plant response rating, Lambsquarters [10, 20]: 15
- Plant response rating, Lambsquarters [10, 21]: 60
- Plant response rating, Lambsquarters [10, 22]: 85
- Lambsquarters plant response rating [10, 23]: 95
- Lambsquarters plant response rating [10, 24]: 90
- Plant response rating, Pigweed [11, 17]: 65
- Pigweed plant response rating [11, 18]: 85
- Plant response rating, Pigweed [11, 19]: 85
- Plant response rating, Pigweed [11, 20]: 55
- Plant response rating, Pigweed [11, 21]: 95
- Plant response rating, Pigweed [11, 22]: 100
- Pigweed plant response rating [11, 23]: 100
- Pigweed plant response rating [11, 24]: 90
- Plant response rating, Ryegrass, Italian [12, 17]: 80
- Ryegrass, Italian plant response rating [12, 18]: 90
- Plant response rating, Ryegrass, Italian [12, 19]: 95
- Plant response rating, Ryegrass, Italian [12, 20]: 40
- Plant response rating, Ryegrass, Italian [12, 21]: 55
- Plant response rating, Ryegrass, Italian [12, 22]: 90
- Ryegrass, Italian plant response rating [12, 23]: 90
- Ryegrass, Italian plant response rating [12, 24]: 90
- Plant response rating, Soybean [13, 17]: 10
- Soybean plant response rating [13, 18]: 20
- Plant response rating, Soybean [13, 19]: 25
- Plant response rating, Soybean [13, 20]: 0
- Plant response rating, Soybean [13, 21]: 5
- Plant response rating, Soybean [13, 22]: 5
- Soybean plant response rating [13, 23]: 20
- Soybean plant response rating [13, 24]: 20
- Plant response rating, Wheat [14, 17]: 0
- Wheat plant response rating [14, 18]: 5
- Plant response rating, Wheat [14, 19]: 5
- Plant response rating, Wheat [14, 20]: 0
- Plant response rating, Wheat [14, 21]: 0
- Plant response rating, Wheat [14, 22]: 0
- Wheat plant response rating [14, 23]: 30
- Wheat plant response rating [14, 24]: 10
- Plant response rating, Nutsedge, Yellow [15, 17]: 70
- Nutsedge, Yellow plant response rating [15, 18]: 60
- Plant response rating, Nutsedge, Yellow [15, 19]: 80
- Plant response rating, Nutsedge, Yellow [15, 20]: 0
- Plant response rating, Nutsedge, Yellow [15, 21]: 20
- Plant response rating, Nutsedge, Yellow [15, 22]: 70
- Nutsedge, Yellow plant response rating [15, 23]: 85
- Nutsedge, Yellow plant response rating [15, 24]: 85
- Plant response rating, Foxtail, Giant [16, 17]: 85
- Foxtail, Giant plant response rating [16, 18]: 90
- Plant response rating, Foxtail, Giant [16, 19]: 95
- Plant response rating, Foxtail, Giant [16, 20]: 85
- Plant response rating, Foxtail, Giant [16, 21]: 95
- Plant response rating, Foxtail, Giant [16, 22]: 100
- Foxtail, Giant plant response rating [16, 23]: 100
- Foxtail, Giant plant response rating [16, 24]: 95

SMILES: COC(=O)Oc1c(C)nn(C)c(=O)c1-c1c([N+](=O)[O-])ccc2ccccc12 [Compound 162]
- Plant response rating, Ragweed [1, 17]: 70
- Ragweed plant response rating [1, 18]: 85
- Plant response rating, Ragweed [1, 19]: 90
- Ragweed plant response rating [1, 24]: 75
- Plant response rating, Velvetleaf [2, 17]: 5
- Velvetleaf plant response rating [2, 18]: 15
- Plant response rating, Velvetleaf [2, 19]: 70
- Velvetleaf plant response rating [2, 24]: 30
- Plant response rating, Morningglory [3, 17]: 60
- Morningglory plant response rating [3, 18]: 85
- Plant response rating, Morningglory [3, 19]: 90
- Morningglory plant response rating [3, 24]: 85
- Plant response rating, Barnyardgrass [4, 17]: 10
- Barnyardgrass plant response rating [4, 18]: 20
- Plant response rating, Barnyardgrass [4, 19]: 25
- Barnyardgrass plant response rating [4, 24]: 25
- Plant response rating, Waterhemp [5, 17]: 45
- Waterhemp plant response rating [5, 18]: 65
- Plant response rating, Waterhemp [5, 19]: 65
- Waterhemp plant response rating [5, 24]: 70
- Plant response rating, Corn [6, 17]: 0
- Corn plant response rating [6, 18]: 0
- Plant response rating, Corn [6, 19]: 0
- Corn plant response rating [6, 24]: 0
- Plant response rating, Johnsongrass [7, 17]: 5
- Johnsongrass plant response rating [7, 18]: 5
- Plant response rating, Johnsongrass [7, 19]: 10
- Johnsongrass plant response rating [7, 24]: 5
- Plant response rating, Blackgrass [8, 17]: 10
- Blackgrass plant response rating [8, 18]: 15
- Plant response rating, Blackgrass [8, 19]: 40
- Blackgrass plant response rating [8, 24]: 30
- Plant response rating, Galium [9, 17]: 90
- Galium plant response rating [9, 18]: 90
- Plant response rating, Galium [9, 19]: 98
- Galium plant response rating [9, 24]: 95
- Plant response rating, Lambsquarters [10, 17]: 85
- Lambsquarters plant response rating [10, 18]: 95
- Plant response rating, Lambsquarters [10, 19]: 95
- Lambsquarters plant response rating [10, 24]: 90
- Plant response rating, Pigweed [11, 17]: 75
- Pigweed plant response rating [11, 18]: 80
- Plant response rating, Pigweed [11, 19]: 90
- Pigweed plant response rating [11, 24]: 85
- Plant response rating, Ryegrass, Italian [12, 17]: 60
- Ryegrass, Italian plant response rating [12, 18]: 70
- Plant response rating, Ryegrass, Italian [12, 19]: 80
- Ryegrass, Italian plant response rating [12, 24]: 70
- Plant response rating, Soybean [13, 17]: 0
- Soybean plant response rating [13, 18]: 0
- Plant response rating, Soybean [13, 19]: 0
- Soybean plant response rating [13, 24]: 0
- Plant response rating, Wheat [14, 17]: 0
- Wheat plant response rating [14, 18]: 10
- Plant response rating, Wheat [14, 19]: 10
- Wheat plant response rating [14, 24]: 5
- Plant response rating, Nutsedge, Yellow [15, 17]: 20
- Nutsedge, Yellow plant response rating [15, 18]: 25
- Plant response rating, Nutsedge, Yellow [15, 19]: 30
- Nutsedge, Yellow plant response rating [15, 24]: 30
- Plant response rating, Foxtail, Giant [16, 17]: 5
- Foxtail, Giant plant response rating [16, 18]: 15
- Plant response rating, Foxtail, Giant [16, 19]: 40
- Foxtail, Giant plant response rating [16, 24]: 15
